Reference: ChEMBL document CHEMBL1201862, “PubChem BioAssay data set” (2004)
Calls of active or inactive are those of the source.

Key:
[1] = tested on: HEK293; assay: inhibition of NOD1-driven NF-kB reporter – cell-based, luminescence, uHTS, primary screen (AID 1578); assay type: functional; conditions: Homo sapiens
[2] = tested on: Streptococcus sp. 'group A'; assay: Streptococcus pyogenes SK(-)GAS viability under kanamycin – luminescence, BacTiterGlo, confirmation, counter-screen for streptokinase expression inhibitor project, dose response (AID 1900); assay type: functional, organism-based
[3] = tested on: BJ; assay: BJ-TERT fibroblast viability loss – cell-based, RAS-independent, luminescence, dose response (AID 1933); assay type: functional; conditions: Homo sapiens
[4] = tested on: HEK293; assay: cells; assay type: functional, cell-based; conditions: Homo sapiens
[5] = biological target: Beta-galactosidase (Escherichia coli, UniProt Q8VNN2); assay: PubChem AID 485352; assay type: functional
Sequence of Beta-galactosidase (Q8VNN2 whole entry): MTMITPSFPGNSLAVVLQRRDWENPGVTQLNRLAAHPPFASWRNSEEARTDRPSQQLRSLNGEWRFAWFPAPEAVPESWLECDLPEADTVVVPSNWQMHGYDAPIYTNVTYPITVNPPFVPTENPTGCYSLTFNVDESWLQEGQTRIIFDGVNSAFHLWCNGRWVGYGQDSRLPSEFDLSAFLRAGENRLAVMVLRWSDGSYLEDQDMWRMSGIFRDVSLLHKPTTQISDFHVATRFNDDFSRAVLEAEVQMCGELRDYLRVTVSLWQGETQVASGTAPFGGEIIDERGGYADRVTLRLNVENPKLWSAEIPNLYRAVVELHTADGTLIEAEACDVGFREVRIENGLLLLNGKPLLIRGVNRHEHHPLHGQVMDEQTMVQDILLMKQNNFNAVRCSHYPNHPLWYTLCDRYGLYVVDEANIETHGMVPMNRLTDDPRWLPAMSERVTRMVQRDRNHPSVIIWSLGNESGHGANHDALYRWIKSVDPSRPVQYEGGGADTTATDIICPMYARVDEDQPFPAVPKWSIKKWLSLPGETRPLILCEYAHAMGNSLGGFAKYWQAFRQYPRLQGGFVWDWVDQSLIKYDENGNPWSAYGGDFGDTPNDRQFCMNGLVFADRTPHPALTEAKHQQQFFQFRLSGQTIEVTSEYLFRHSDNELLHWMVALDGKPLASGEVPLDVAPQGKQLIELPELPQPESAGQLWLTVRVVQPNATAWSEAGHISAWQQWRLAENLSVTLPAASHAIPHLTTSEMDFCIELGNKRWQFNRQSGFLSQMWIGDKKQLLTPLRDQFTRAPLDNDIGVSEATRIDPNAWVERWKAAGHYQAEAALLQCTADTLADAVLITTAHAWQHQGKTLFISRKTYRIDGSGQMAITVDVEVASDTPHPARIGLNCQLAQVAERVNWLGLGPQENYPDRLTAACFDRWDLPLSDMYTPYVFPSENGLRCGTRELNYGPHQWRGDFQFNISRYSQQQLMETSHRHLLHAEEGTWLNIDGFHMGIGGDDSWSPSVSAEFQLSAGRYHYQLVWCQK

[6] = tested on: Vero; assay: mammalian cell viability reduction – secondary assay, cytotoxicity control for West Nile virus antiviral project, dose response (AID 1650); assay type: functional; conditions: Chlorocebus sabaeus
[7] = biological target: T1, Streptokinase A (Streptococcus pyogenes serotype M1, UniProt P10520); assay: viability-normalized secreted streptokinase activity reduction – plasminogen activation absorbance, OD405, dose response (AID 1914); assay type: functional, Streptococcus pyogenes M1 GAS;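 also: secreted streptokinase activity via plasminogen activation per viability signal from cell pellet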
T1 sequence (P10520 whole entry): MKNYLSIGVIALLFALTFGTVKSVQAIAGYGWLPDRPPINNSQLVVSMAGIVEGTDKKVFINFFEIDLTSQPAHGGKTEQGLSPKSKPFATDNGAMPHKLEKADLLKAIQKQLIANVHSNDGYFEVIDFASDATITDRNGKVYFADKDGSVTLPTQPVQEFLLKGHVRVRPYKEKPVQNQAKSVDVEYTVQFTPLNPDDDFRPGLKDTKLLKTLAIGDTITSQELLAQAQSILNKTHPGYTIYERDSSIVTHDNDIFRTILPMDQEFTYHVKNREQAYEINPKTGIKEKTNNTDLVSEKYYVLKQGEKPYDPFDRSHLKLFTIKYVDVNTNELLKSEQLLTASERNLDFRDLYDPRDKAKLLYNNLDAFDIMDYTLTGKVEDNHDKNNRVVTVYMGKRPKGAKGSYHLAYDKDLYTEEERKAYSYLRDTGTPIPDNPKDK

[8] = tested on: BJ; assay: cells; assay type: functional, cell-based; conditions: Homo sapiens
[9] = tested on: HEK293; assay: cells; assay type: functional, cell-based; conditions: Homo sapiens; remark: listed apart in the source
[10] = biological target: Nucleotide-binding oligomerization domain-containing protein 2 (Homo sapiens, UniProt Q9HC29); assay: inhibition of NOD2-driven NF-kB reporter – cell-based, luminescence, uHTS, HEK293 (AID 1566); assay type: functional
[11] = tested on: HEK293; assay: NOD2 signaling inhibitors in MDP-stimulated cells, cell-based, uHTS, luminescence (AID 2001); assay type: functional; conditions: Homo sapiens
[12] = tested on: HEK293; assay: cells; assay type: functional, cell-based; conditions: Homo sapiens; remark: listed apart in the source
[13] = Luminescence-based dose response cell-based high throughput screening assay for cytotoxic compounds using the IEC-6 intestinal epithelial cell line. [Related pubchem assays: 1858 (Summary AID.), 1825 (Counterscreen.), 1907 (Confirmation screen.)]; assay type: functional
[14] = biological target: Type-1 angiotensin II receptor (Homo sapiens, UniProt P30556); assay: antagonism of angiotensin II type 1 receptor – cell-based, uHTS hits, selectivity assay for APJ receptor antagonist project, dose response (AID 463214); assay type: functional;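 also: antagonist potency against angiotensin II stimulated AT1 response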
Sequence of Type-1 angiotensin II receptor (P30556 whole entry): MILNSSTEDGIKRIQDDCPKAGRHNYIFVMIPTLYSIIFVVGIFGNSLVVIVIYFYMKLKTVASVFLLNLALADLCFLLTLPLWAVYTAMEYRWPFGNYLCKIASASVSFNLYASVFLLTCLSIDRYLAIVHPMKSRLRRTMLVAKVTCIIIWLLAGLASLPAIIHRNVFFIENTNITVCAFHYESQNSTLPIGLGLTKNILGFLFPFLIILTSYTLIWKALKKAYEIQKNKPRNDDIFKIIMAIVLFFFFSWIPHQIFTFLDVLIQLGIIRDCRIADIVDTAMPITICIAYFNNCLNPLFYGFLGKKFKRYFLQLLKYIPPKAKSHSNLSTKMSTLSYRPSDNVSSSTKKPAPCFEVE

[15] = tested on: BJ; assay: BJ-TERT-LT-ST fibroblast viability loss – cell-based, RAS-independent, luminescence, dose response (AID 1935); assay type: functional; conditions: Homo sapiens;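 also: BJ fibroblasts immortalized with TERT plus LT and ST oncogenes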
[16] = DRD fibroblast viability loss – cell-based, non-viral oncogenic, luminescence, dose response (AID 1934); assay type: functional; conditions: Homo sapiens
[17] = tested on: Streptococcus; assay: GAS UMAA2166 growth inhibition – luminescence, BacTiterGlo, counter-screen for streptokinase expression inhibitor project, dose response (AID 1915); assay type: functional, organism-based;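 also: potency for reduction of bacterial viability or growth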
[18] = biological target: Glucose-6-phosphate 1-dehydrogenase (Homo sapiens, UniProt P11413); assay: inhibition of Homo sapiens G6PD, dose series – biochemical, fluorescence, selectivity assay for P. falciparum G6PD inhibitor project, dose response (AID 504792); assay type: functional
Sequence of Glucose-6-phosphate 1-dehydrogenase (P11413 whole entry): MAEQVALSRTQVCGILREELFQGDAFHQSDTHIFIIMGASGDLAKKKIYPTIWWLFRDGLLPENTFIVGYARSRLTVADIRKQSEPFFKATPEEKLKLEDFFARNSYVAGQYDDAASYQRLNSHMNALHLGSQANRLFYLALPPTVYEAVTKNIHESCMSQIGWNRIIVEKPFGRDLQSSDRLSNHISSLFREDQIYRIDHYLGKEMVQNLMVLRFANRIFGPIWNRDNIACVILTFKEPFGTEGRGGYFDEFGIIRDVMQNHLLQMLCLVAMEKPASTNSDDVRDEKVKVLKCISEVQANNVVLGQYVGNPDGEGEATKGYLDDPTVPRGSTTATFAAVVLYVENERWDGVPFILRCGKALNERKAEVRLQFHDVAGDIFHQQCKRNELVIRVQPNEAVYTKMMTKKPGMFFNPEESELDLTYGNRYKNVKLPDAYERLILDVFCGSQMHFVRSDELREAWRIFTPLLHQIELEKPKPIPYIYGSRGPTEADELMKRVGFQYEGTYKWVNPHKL

[19] = tested on: HEK293; assay: HEK293T cell viability loss, resazurin readout – resazurin fluorescence, cytotoxicity control for NF-kB activator project, SAR follow-up (AID 493251); assay type: functional, cell-based; conditions: Homo sapiens
[20] = tested on: Jurkat; assay: SAR Analysis of small molecule inhibitors of both B-cell and T-cell specific antigen receptor-induced NF-kB activation in a Jurkat cell line using a luminescence assay. [Related pubchem assays (depositor defined):AID435003, AID435022, AID465, AID489029]; assay type: functional, cell-based; conditions: Homo sapiens
[21] = tested on: BJ; assay: growth inhibition of engineered Ras-driven BJ cells – cell-based, alamar blue fluorescence, cherrypicked samples, dose response (AID 2631); assay type: functional; conditions: Homo sapiens;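 also: confirmatory dose-response assay in RAS-dependent BJ fibroblasts engineered with TERT, LT and ST, with cytotoxicity read by fluorescence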
[22] = tested on: HEK293; assay: SAR Analysis of small molecule inhibitors of both B-cell and T-cell specific antigen receptor-induced NF-kB activation in a HEK-293T cell line using a luminescence assay. [Related pubchem assays (depositor defined):AID435003, AID435022, AID465, AID489019, AID489029]; assay type: functional, cell-based; conditions: Homo sapiens
[23] = biological target: Paired box protein Pax-8 (Homo sapiens, UniProt Q06710); assay: PAX8 transcriptional activity inhibition in RMG-I – RMG-I cells, luciferase, cherry-pick, dose response (AID 687027); assay type: functional, cell-based;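 also: luciferase reporter driven by Pax8 target thyroperoxidase promoter measured by SteadyGlo luminescence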
Sequence of Paired box protein Pax-8 (Q06710 whole entry): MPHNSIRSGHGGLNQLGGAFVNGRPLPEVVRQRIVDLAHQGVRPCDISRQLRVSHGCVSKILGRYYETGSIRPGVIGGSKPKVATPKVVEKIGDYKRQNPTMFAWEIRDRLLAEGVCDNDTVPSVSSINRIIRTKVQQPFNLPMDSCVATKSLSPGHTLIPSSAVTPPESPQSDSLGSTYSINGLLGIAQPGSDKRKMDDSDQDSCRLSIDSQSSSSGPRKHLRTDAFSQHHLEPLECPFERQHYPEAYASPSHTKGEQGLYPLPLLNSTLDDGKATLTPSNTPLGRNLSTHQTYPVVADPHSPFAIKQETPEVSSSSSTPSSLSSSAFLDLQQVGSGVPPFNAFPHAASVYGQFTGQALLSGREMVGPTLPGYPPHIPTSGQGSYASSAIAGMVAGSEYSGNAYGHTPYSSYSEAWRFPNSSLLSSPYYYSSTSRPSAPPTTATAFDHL

[24] = inhibitors acting on PAX2 in cells – cell-based, plate reader, dry powder samples, selectivity assay for PAX8 inhibitor project, dose response (AID 743048); assay type: functional;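 also: HEK293 cells carrying a WT1 promoter luciferase reporter driven by expressed Pax2; potency is for inhibition of Pax2 driven reporter signal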
[25] = OVCAR-3 cell viability loss – plate reader, dry powder samples, PAX8 inhibitor project, dose response (AID 743044); assay type: functional, cell-based
[26] = PAX5 cellular inhibition readout – cell-based, plate reader, dry powder samples, selectivity assay for PAX8 inhibitor project, dose response (AID 743047); assay type: functional;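 also: HEK293 cells carrying a Pax5 driven CD19 promoter luciferase reporter; potency of inhibitors that lower reporter luminescence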
[27] = IGROV1 cell killing – plate reader, dry powder samples, PAX8 inhibitor project, dose response (AID 743043); assay type: functional, cell-based; conditions: IGROV-1
[28] = OVCAR4 cell viability loss – plate reader, dry powder, SA11, cytotoxicity control for PAX8 inhibitor project, dose response (AID 743150); assay type: functional, cell-based; conditions: OVCAR-4
[29] = COV434 cell viability loss – plate reader, dry powder, SA7, cytotoxicity control for PAX8 inhibitor project, dose response (AID 743145); assay type: functional, cell-based
[30] = OV-90 cell viability loss – plate reader, dry powder, SA8, PAX8 inhibitor project, dose response (AID 743149); assay type: functional, cell-based
[31] = PAX8-dependent cell viability loss – plate reader, dry powder, dose response (AID 743049); assay type: functional, cell-based
[32] = biological target: Apoptotic protease-activating factor 1 (Homo sapiens, UniProt O14727); assay type: functional
[33] = biological target: T2, Fatty acid synthase (Homo sapiens, UniProt P49327); assay: inhibition of human FAS-TE enzyme activity – biochemical, endpoint fluorescence intensity, uHTS hits, dose response (AID 624327); assay type: functional;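 also: fluorescence from hydrolysis of an O-methyl fluorescein acyl ester substrate by the enzyme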
T2 sequence (P49327 whole entry): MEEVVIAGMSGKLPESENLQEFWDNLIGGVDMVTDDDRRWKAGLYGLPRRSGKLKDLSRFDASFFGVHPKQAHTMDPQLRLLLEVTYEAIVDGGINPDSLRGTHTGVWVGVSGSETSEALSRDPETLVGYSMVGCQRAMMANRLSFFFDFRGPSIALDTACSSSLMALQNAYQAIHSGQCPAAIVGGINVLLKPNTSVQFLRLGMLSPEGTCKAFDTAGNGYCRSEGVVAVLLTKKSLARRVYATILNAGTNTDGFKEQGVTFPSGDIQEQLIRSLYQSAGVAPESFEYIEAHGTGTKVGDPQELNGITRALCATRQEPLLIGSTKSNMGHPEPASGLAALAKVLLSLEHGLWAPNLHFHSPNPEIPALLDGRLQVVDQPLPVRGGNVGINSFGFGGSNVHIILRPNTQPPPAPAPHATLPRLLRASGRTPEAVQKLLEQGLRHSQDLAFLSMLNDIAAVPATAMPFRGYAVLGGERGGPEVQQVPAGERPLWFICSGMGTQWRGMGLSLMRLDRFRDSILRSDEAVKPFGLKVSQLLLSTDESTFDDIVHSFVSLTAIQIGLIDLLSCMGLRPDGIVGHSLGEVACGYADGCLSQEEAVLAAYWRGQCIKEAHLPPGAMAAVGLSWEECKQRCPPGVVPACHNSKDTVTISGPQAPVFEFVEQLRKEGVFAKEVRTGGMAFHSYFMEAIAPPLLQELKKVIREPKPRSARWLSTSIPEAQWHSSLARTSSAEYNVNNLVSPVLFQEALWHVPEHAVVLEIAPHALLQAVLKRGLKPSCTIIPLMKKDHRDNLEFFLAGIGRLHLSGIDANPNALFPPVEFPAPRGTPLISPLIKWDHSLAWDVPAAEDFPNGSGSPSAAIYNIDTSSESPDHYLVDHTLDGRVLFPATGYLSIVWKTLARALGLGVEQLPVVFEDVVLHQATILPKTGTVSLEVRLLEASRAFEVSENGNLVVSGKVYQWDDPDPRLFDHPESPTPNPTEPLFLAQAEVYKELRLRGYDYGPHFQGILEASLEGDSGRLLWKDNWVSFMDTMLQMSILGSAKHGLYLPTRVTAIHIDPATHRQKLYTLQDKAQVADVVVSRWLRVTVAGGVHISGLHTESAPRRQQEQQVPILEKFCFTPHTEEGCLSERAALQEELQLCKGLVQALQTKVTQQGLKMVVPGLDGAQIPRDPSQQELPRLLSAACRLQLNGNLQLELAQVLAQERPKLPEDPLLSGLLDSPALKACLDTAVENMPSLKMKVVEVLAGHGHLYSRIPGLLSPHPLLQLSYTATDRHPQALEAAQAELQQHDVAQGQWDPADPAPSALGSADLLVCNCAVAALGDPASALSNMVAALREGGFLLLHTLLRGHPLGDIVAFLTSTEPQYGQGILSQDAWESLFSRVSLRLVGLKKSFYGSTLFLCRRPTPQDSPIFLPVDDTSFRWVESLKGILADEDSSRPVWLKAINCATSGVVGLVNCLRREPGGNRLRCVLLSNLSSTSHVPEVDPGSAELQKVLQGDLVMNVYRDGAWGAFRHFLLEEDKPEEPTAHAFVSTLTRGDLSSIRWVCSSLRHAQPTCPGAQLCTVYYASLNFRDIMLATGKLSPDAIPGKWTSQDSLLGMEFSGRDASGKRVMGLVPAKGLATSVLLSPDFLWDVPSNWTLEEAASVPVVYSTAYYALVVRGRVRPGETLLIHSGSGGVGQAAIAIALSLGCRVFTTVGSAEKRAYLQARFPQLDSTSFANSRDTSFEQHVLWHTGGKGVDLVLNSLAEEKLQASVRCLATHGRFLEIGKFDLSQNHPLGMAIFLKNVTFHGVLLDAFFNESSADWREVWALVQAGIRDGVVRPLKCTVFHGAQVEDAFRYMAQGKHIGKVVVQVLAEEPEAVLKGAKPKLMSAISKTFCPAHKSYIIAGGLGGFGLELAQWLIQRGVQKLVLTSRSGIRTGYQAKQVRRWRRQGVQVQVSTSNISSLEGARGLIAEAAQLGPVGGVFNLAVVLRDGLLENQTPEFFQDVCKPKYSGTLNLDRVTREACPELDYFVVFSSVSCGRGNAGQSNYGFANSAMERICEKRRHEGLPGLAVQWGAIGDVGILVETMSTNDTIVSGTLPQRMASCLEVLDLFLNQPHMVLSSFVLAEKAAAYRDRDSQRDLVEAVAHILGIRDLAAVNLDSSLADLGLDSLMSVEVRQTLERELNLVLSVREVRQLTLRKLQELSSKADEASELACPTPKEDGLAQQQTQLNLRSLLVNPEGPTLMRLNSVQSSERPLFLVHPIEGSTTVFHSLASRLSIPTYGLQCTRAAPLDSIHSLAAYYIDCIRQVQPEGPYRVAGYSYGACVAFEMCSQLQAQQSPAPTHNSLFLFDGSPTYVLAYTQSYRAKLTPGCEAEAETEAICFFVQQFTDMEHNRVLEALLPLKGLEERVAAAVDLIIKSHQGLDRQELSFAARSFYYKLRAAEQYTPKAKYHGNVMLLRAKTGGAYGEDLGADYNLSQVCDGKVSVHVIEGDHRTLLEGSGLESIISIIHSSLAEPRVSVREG

[34] = biological target: T2, Fatty acid synthase; assay: inhibition of human FAS-TE enzyme activity – biochemical, kinetic fluorescence intensity, dose response (AID 624326); assay type: functional;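 also: rate of fluorescence rise from hydrolysis of a fluorogenic O-methyl fluorescein ester substrate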

In the case of `O=S(=O)(Nc1cccc2cccnc12)c1ccccc1`, the EC50 [1] is reported as > 20 µM (inactive), the EC50 [2] is reported as 3.27 µM (active) and the EC50 [3] is reported as 28.1 µM (active). The IC50 [4] was 2.74 µM (active), the EC50 [5] was > 40 µM (inactive) and the CC50 [6] was 7.94 µM (active). For the same compound, the EC50 [7] was > 150 µM (not active), the EC50 [8] was 17.2 µM (active) and the IC50 [9] was 11.7 µM (active). For the same compound, the EC50 [10] was > 20 µM (inactive), the IC50 [11] was 1.83 µM (inactive) and the IC50 [12] was > 20 µM (inactive). For the same compound, the IC50 [13] was 2.08 µM (active), the IC50 [14] was 2.75 µM (active) and the EC50 [15] was > 150 µM (not active). For the same compound, the EC50 [16] was 34 µM (active), the EC50 [17] was 12.3 µM (active) and the IC50 [18] was 51.9 µM (inactive). For the same compound, the IC50 [19] was > 80 µM (inactive), the IC50 [20] was 890 nM (active) and the EC50 [21] was 572 nM (active). The IC50 [22] was 44.8 µM (inactive), the AC50 [23] was 6.46 µM (active) and the AC50 [24] was 32.4 µM (active). The AC50 [25] was 38.9 µM (active), the AC50 [26] was 33.2 µM (active) and the AC50 [27] was 26.3 µM (active). For the same compound, the AC50 [28] was 21.4 µM (active), the AC50 [29] was 19.3 µM (active) and the AC50 [30] was 15.3 µM (active). For the same compound, the AC50 [31] was 20.7 µM (active).
In the case of `CC(C)c1ccc(/C=N/Nc2cc(N3CCOCC3)nc(N3CCOCC3)n2)cc1`, the IC50 [32] is reported as 19.1 µM (active), the IC50 [33] is reported as 752 nM (active) and the IC50 [34] is reported as 379 nM (active).
